SMILES strings stand for the structures.

Data set [1] has as its system Homo sapiens. The data set is described as follows: Drug level in human assessed as retention time treated with 10 mg, po of [14C]peliglitazar by LC-MS and LC-MS/MS analysis. The class given is ADME, organism-based.
Data set [2] has as its system Homo sapiens. The data set is described as follows: Drug metabolism in human assessed as retention time of parent compound at 10 mg, po by LC-MS and LC-MS/MS analysis. It is filed as ADME, organism-based. The following applies: in vivo.

On to `COc1ccc(OC(=O)N(CC(=O)O)[C@@H](C)c2ccc(OCCc3nc(-c4ccccc4)oc3CO)cc2)cc1`, for which, in data set [1], the Retention_time was found to be 39.5 min. `Cc1oc(-c2ccccc2)nc1C(O)COc1ccc([C@H](C)N(CC(=O)O)C(=O)Oc2ccc(O)cc2)cc1` (stereo not given in full): in data set [1], the Retention_time is listed as 32.1 min. Same read-out and setting: the figure for `Cc1oc(-c2ccccc2)nc1CCOc1ccc([C@H](C)N(CC(=O)O[C@@H]2O[C@H](C(=O)O)[C@@H](O)[C@H](O)[C@H]2O)C(=O)Oc2ccc(O)cc2)cc1` is 32.2 min; for `Cc1oc(-c2ccccc2)nc1CC(=O)O` it is 18.5 min. `COc1ccc(OC(=O)N(CC(=O)O)[14C@@H](C)c2ccc(O[14CH2]Cc3nc(-c4ccccc4)oc3C)cc2)cc1`: the Retention_time in data set [2] was found to be 65.5 min.

With `COc1ccc(OC(=O)N(CC(=O)O)[C@@H](C)c2ccc(OCCc3nc(-c4ccc(O)cc4)oc3C)cc2)cc1`, the Retention_time in data set [1] worked out at 42.3 min. For `Cc1oc(-c2ccccc2)nc1CCOc1ccc([C@H](C)N(CC(=O)O)C(=O)Oc2ccc(O)cc2)cc1`, in data set [1], the Retention_time came out at 48.4 min. Turning to `C[C@@H](c1ccc(OCCc2nc(-c3ccccc3)oc2CO)cc1)N(CC(=O)O)C(=O)Oc1ccc(O)cc1`, the Retention_time in data set [1] came out at 27.6 min. Still for that read-out and setting: the figure for `COc1ccc(OC(=O)N(CC(=O)O)[C@@H](C)c2ccc(OCC(O)c3nc(-c4ccccc4)oc3C)cc2)cc1` (stereo not given in full) is 46.8 min. With `COc1ccc(OC(=O)N(CC(=O)O)[C@@H](C)c2ccc(O)cc2)cc1`, the Retention_time in data set [1] was 21 min.

The values above are taken from ChEMBL document CHEMBL3525981, “Metabolism and disposition of 14C-labeled peliglitazar in humans” (Drug Metab Dispos, 2011).
